According to the supplement of paper PMC10307832:

Columns and labels:
Assay in all cases: relative viability (nuclei count vs DMSO), 5 days (fraction); higher = more cells survive
NCI-H661 = test system: NCI-H661
In short: (§1)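 Lung cancer cell lines were seeded in 1536-well plates and dosed by pin tool the next day, with either a single drug or a fixed anchor-drug dose combined with five library-drug doses (not always all listed) spaced in √10 steps. Five days later, one step fixed the cells and stained their nuclei (final 0.05% Triton X-100, 1% formaldehyde, 1 ug/ml Hoechst), and nuclei were counted on 4× images. Relative viability is the nuclei count in treated wells divided by the count in vehicle wells, and each value is the median of duplicate plates.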

EBC-1 = test system: EBC-1
In short: as §1

IA-LM = test system: IA-LM
In short: as §1

NCI-H1299 = test system: NCI-H1299
In short: as §1

NCI-H1703 = test system: NCI-H1703
In short: as §1

A549 = test system: A549
In short: as §1

Calu-6 = test system: Calu-6
In short: as §1

Compound	relative viability (NCI-H661; first compound 0.1265 µM)	relative viability (NCI-H661; first compound 0.4 µM)	relative viability (NCI-H661; first compound 4 µM)	relative viability (EBC-1; first compound 0.04 µM)	relative viability (EBC-1; first compound 0.1265 µM)	relative viability (EBC-1; first compound 0.4 µM)	relative viability (EBC-1; first compound 4 µM)	relative viability (IA-LM; first compound 0.04 µM)	relative viability (IA-LM; first compound 0.1265 µM)	relative viability (IA-LM; first compound 0.4 µM)	relative viability (IA-LM; first compound 4 µM)	relative viability (NCI-H1299; first compound 0.04 µM)	relative viability (NCI-H1299; first compound 0.1265 µM)	relative viability (NCI-H1299; first compound 0.4 µM)	relative viability (NCI-H1299; first compound 4 µM)	relative viability (NCI-H1703; first compound 0.04 µM)	relative viability (NCI-H1703; first compound 0.4 µM)	relative viability (NCI-H1703; first compound 4 µM)	relative viability (A549; first compound 0.04 µM)	relative viability (A549; first compound 0.1265 µM)	also measured
Clc1ccc(Nc2nnc(Cc3ccncc3)c3ccccc23)cc1 [Vatalanib] + CS(=O)(=O)CCNCc1ccc(-c2ccc3ncnc(Nc4ccc(OCc5cccc(F)c5)c(Cl)c4)c3c2)o1 [Lapatinib] (partner 2 µM)	0.384	0.518	0.496	0.165	0.204	0.22	0.202	0.869	0.816	0.885	0.674	0.96	0.961	0.931	0.969	1.28	1.4	0.435	0.991	0.918	relative viability (NCI-H661; first compound 0.04 µM): 0.505; relative viability (NCI-H661; first compound 1.265 µM): 0.524; relative viability (EBC-1; first compound 1.265 µM): 0.232; relative viability (IA-LM; first compound 1.265 µM): 0.674; relative viability (NCI-H1299; first compound 1.265 µM): 0.939; relative viability (NCI-H1703; first compound 0.1265 µM): 1.05; relative viability (NCI-H1703; first compound 1.265 µM): 0.611; relative viability (A549; first compound 0.4 µM): 1.05; relative viability (A549; first compound 1.265 µM): 1; relative viability (A549; first compound 4 µM): 1.01; relative viability (Calu-6; first compound 0.04 µM): 1.14; relative viability (Calu-6; first compound 0.1265 µM): 1.02; relative viability (Calu-6; first compound 0.4 µM): 1.09; relative viability (Calu-6; first compound 1.265 µM): 1.05; relative viability (Calu-6; first compound 4 µM): 1.07
C[C@@H]1CN(CC(=O)Nc2ccc3c(c2)Cc2cccc(-c4cc(=O)cc(N5CCOCC5)o4)c2S3)C[C@H](C)O1 + CS(=O)(=O)N1CCN(Cc2cc3nc(-c4cccc5[nH]ncc45)nc(N4CCOCC4)c3s2)CC1 [Pictilisib] (partner 1 µM)	0.381	0.381	0.448	0.487	0.412	0.244	0.266	0.3	0.372	0.301	0.234	0.898	0.739	0.848	0.689	0.249	0.238	0.205	0.524	0.594	relative viability (NCI-H661; first compound 0.04 µM): 0.408; relative viability (NCI-H1703; first compound 0.1265 µM): 0.243; relative viability (A549; first compound 0.4 µM): 0.444; relative viability (A549; first compound 4 µM): 0.323; relative viability (Calu-6; first compound 0.04 µM): 0.962; relative viability (Calu-6; first compound 0.1265 µM): 0.97; relative viability (Calu-6; first compound 0.4 µM): 0.925; relative viability (Calu-6; first compound 4 µM): 0.8
CC(C)Oc1cc(Nc2nc(N[C@@H](C)c3ccc(F)cn3)ncc2Cl)n[nH]1 [AZ23] + CS(=O)(=O)CCNCc1ccc(-c2ccc3ncnc(Nc4ccc(OCc5cccc(F)c5)c(Cl)c4)c3c2)o1 [Lapatinib] (partner 2 µM)	–	–	–	–	–	–	–	–	–	–	–	–	–	–	–	–	–	–	–	–	relative viability (NCI-H661; first compound 0.01 µM): 0.432; relative viability (NCI-H661; first compound 0.03162 µM): 0.633; relative viability (NCI-H661; first compound 0.3162 µM): 0.545; relative viability (EBC-1; first compound 0.03162 µM): 0.234; relative viability (EBC-1; first compound 0.3162 µM): 0.194; relative viability (IA-LM; first compound 0.01 µM): 0.872; relative viability (IA-LM; first compound 0.03162 µM): 1.37; relative viability (IA-LM; first compound 0.3162 µM): 0.871; relative viability (NCI-H1299; first compound 0.01 µM): 0.977; relative viability (NCI-H1299; first compound 0.03162 µM): 1.08; relative viability (NCI-H1299; first compound 0.3162 µM): 1.03; relative viability (NCI-H1703; first compound 0.01 µM): 0.939; relative viability (NCI-H1703; first compound 0.03162 µM): 1.16; relative viability (NCI-H1703; first compound 0.3162 µM): 1.3; relative viability (A549; first compound 0.01 µM): 1.16; relative viability (A549; first compound 0.03162 µM): 0.945; relative viability (A549; first compound 0.3162 µM): 1.02; relative viability (Calu-6; first compound 0.03162 µM): 1.25; relative viability (Calu-6; first compound 0.3162 µM): 1.08
Clc1ccc(Nc2nnc(Cc3ccncc3)c3ccccc23)cc1 [Vatalanib] + C[C@]1(O)C[C@@H](c2nc(-c3ccc4ccc(-c5ccccc5)nc4c3)c3c(N)nccn32)C1 [Linsitinib] (partner 1 µM)	0.477	0.616	0.581	1.14	0.777	0.994	0.808	0.763	0.59	0.69	0.582	1.05	0.955	0.948	0.967	0.804	1.21	0.211	0.51	0.573	relative viability (NCI-H661; first compound 0.04 µM): 0.59; relative viability (NCI-H661; first compound 1.265 µM): 0.581; relative viability (EBC-1; first compound 1.265 µM): 0.812; relative viability (IA-LM; first compound 1.265 µM): 0.55; relative viability (NCI-H1299; first compound 1.265 µM): 0.961; relative viability (NCI-H1703; first compound 1.265 µM): 0.386; relative viability (A549; first compound 0.4 µM): 0.703; relative viability (A549; first compound 1.265 µM): 0.656; relative viability (A549; first compound 4 µM): 0.592; relative viability (Calu-6; first compound 0.1265 µM): 0.926; relative viability (Calu-6; first compound 0.4 µM): 1.02; relative viability (Calu-6; first compound 1.265 µM): 0.912; relative viability (Calu-6; first compound 4 µM): 1.01
COc1cc(N2CCC(C(N)=O)CC2)ccc1Nc1nc(N)c(Cl)c(Nc2ccccc2S(=O)(=O)C(C)C)n1 [HG-5-88-01] + C[C@@H](Oc1cc(-c2cnn(C3CCNCC3)c2)cnc1N)c1c(Cl)ccc(F)c1Cl [Crizotinib] (partner 1 µM)	0.964	1.1	0.926	0.183	0.187	0.207	0.142	0.907	0.953	0.773	0.758	0.992	0.981	0.982	0.881	0.581	0.54	0.175	0.735	0.763	relative viability (NCI-H661; first compound 1.265 µM): 0.777; relative viability (EBC-1; first compound 1.265 µM): 0.171; relative viability (IA-LM; first compound 1.265 µM): 0.632; relative viability (NCI-H1299; first compound 1.265 µM): 0.976; relative viability (NCI-H1703; first compound 0.1265 µM): 0.523; relative viability (NCI-H1703; first compound 1.265 µM): 0.327; relative viability (A549; first compound 0.4 µM): 0.699; relative viability (A549; first compound 1.265 µM): 0.387; relative viability (A549; first compound 4 µM): 0.0941; relative viability (Calu-6; first compound 0.04 µM): 0.767; relative viability (Calu-6; first compound 0.1265 µM): 0.81; relative viability (Calu-6; first compound 0.4 µM): 0.833; relative viability (Calu-6; first compound 1.265 µM): 0.616; relative viability (Calu-6; first compound 4 µM): 0.304
CC(C)Oc1cc(Nc2nc(N[C@@H](C)c3ccc(F)cn3)ncc2Cl)n[nH]1 [AZ23] + Cc1nc(NC(=O)N2CCC[C@H]2C(N)=O)sc1-c1ccnc(C(C)(C)C(F)(F)F)c1 [Alpelisib] (partner 2 µM)	–	–	–	–	–	–	–	–	–	–	–	–	–	–	–	–	–	–	–	–	relative viability (NCI-H661; first compound 0.01 µM): 0.629; relative viability (NCI-H661; first compound 0.03162 µM): 0.686; relative viability (NCI-H661; first compound 0.3162 µM): 0.908; relative viability (EBC-1; first compound 0.01 µM): 0.826; relative viability (EBC-1; first compound 0.03162 µM): 0.869; relative viability (EBC-1; first compound 0.3162 µM): 0.859; relative viability (IA-LM; first compound 0.01 µM): 0.729; relative viability (IA-LM; first compound 0.03162 µM): 0.98; relative viability (IA-LM; first compound 0.3162 µM): 0.943; relative viability (NCI-H1299; first compound 0.01 µM): 1.16; relative viability (NCI-H1299; first compound 0.03162 µM): 1.09; relative viability (NCI-H1299; first compound 0.3162 µM): 1.23; relative viability (NCI-H1703; first compound 0.03162 µM): 0.434; relative viability (NCI-H1703; first compound 0.3162 µM): 0.308; relative viability (A549; first compound 0.01 µM): 0.738; relative viability (A549; first compound 0.03162 µM): 0.758; relative viability (A549; first compound 0.3162 µM): 0.716; relative viability (Calu-6; first compound 0.03162 µM): 1.12; relative viability (Calu-6; first compound 0.3162 µM): 1.11
C[C@@H]1CN(CC(=O)Nc2ccc3c(c2)Cc2cccc(-c4cc(=O)cc(N5CCOCC5)o4)c2S3)C[C@H](C)O1 + CS(=O)(=O)CCNCc1ccc(-c2ccc3ncnc(Nc4ccc(OCc5cccc(F)c5)c(Cl)c4)c3c2)o1 [Lapatinib] (partner 2 µM)	0.488	0.479	0.411	0.255	0.219	0.214	0.208	0.951	0.777	0.956	0.339	1.01	0.956	1.01	0.816	1.24	0.955	0.688	0.986	0.917	relative viability (NCI-H1703; first compound 0.1265 µM): 1.1; relative viability (A549; first compound 0.4 µM): 1.14; relative viability (A549; first compound 4 µM): 0.831; relative viability (Calu-6; first compound 0.04 µM): 1.09; relative viability (Calu-6; first compound 0.1265 µM): 1.06; relative viability (Calu-6; first compound 0.4 µM): 0.96; relative viability (Calu-6; first compound 4 µM): 0.775
